Measured values taken from article PMC9822133, “Design, Synthesis and Antiproliferative Evaluation of Bis-Indole Derivatives with a Phenyl Linker: Focus on Autophagy” (Molecules, 2022).

Tests used:
Phospho-AMPKα = assay: Western blot, phospho-AMPK; assay type: cell-based, human; details: A549, 24, 48, 72 h
Text: (§1) ULK1/AMPK. ULK1 is a serine/threonine protein kinase. The ULK1 complex controls the formation of the phagophore, the initial autophagosomal precursor membrane structure. Upon induction of autophagy, the ULK1 complex translocates to autophagy initiation sites and regulates the recruitment of a second kinase complex, VPS34. ULK1 can be inhibited by phosphorylation by mammalian target of rapamycin complex 1 (mTORC1) or activated after AMP-activated protein kinase (AMPK) phosphorylation. Under conditions of nutrient deficiency, AMPK is activated, which directly activates ULK1. The kinase is phosphorylated, i.e., activated by an increased AMP/ATP ratio due to cellular and environmental stress. AMPK also inactivates mTORC1 and thus blocks its inhibitory action on autophagy activation.
(§2) A549 cells were seeded on Petri dishes (55 cm^2) at a density of 1 × 10^6 and allowed to culture in the medium. After 24 h, the test substance was added, and the cells were incubated for 24, 48 and 72 h. […] After lysis, the cells were sonicated, and the protein concentration in the samples was quantified using the Pierce® BCA Protein Assay Kit (Thermo Scientific, Rockford, IL, USA) and measured by an automated Cytation™ 3 Cell Imaging Multi-Mode Reader (Biotek) at a wavelength of 570 nm. […]

MCF10A = assay: MTT screening assay, MCF10A non-cancer cells; assay type: cell-based, human
Text: (§3) The ability of newly synthesized indole phytoalexins to suppress cell proliferation was screened in vitro on eight cancer cell lines including human colorectal carcinoma (Caco-2 and HCT116), human cervical cancer (HeLa), human breast adenocarcinoma (MCF-7, MDA-MB-231), human alveolar adenocarcinoma (A549) and human leukemic T cell lymphoma (Jurkat), and two non-cancer cell lines (MCF-10A, Cos-7).
(§4) The cell lines used for this study were Caco-2 (human colorectal adenocarcinoma cell line, American Type Culture Collection, Manassas, VA, USA (ATCC)), HCT116 (human colorectal carcinoma cells European Collection of Authenticated Cell Cultures, Salisbury, UK (ECACC)), HeLa (human cervical tumor cells, ECACC), MCF-7 (human breast tumor cells, ECACC), MDA-MB-231 (human breast tumor cells, ATCC), A549 (human lung carcinoma cells, ATCC), BLM (human melanoma lung metastases, a gift from prof. K. Smetana, Institute of Anatomy, Charles University in Prague), Jurkat (human leukemia cell line, ECACC), Cos-7 (immortalized monkey kidney fibroblasts, ATCC) and MCF-10A (human mammary epithelial cells, ATCC). Caco-2, MCF-7, BLM, Cos-7 and A549 cells were cultured in Dulbecco’s Modified Eagle’s Medium (DMEM) with high glucose and sodium pyruvate (GE Healthcare, Piscataway, NJ, USA); HCT116 lines, HeLa, MDA-MB-231 and Jurkat were cultured in RPMI-1640 medium; and MCF10A cells were cultured in high glucose DMEM/F12 (Dulbecco’s Modified Eagle’s Medium F12). The media were enriched with 10% fetal bovine serum (FBS) and a 1% solution of a mixture of antibiotics and antimycotics 1× HyClone™ (GE Healthcare, Chicago, IL, USA). DMEM/F12 medium was supplemented with epidermal growth factor (EGF) (20 ng/mL final), hydrocortisone (0.5 μg/mL final) and insulin (10 μg/mL final) (Sigma-Aldrich Chemie, Steinheim, Germany). The cells were placed in an incubator at 37 °C with humidified air containing 5% CO2.
(§5) The MTT assay is a colorimetric method used to quantify the metabolic activity of cells. MTT (3-(4,5-di-methylthiazol-2-yl)2,5-diphenyltetrazolium bromide) (Sigma-Aldrich Chemie, Steinheim, Germany) is reduced by oxidoreductases in the cytosol of cells to light-absorbing formazan, the presence of which can be measured spectrophotometrically and determines the half-maximal inhibitory concentration (IC50). A549 cells were seeded in […] culture plates at a density of 5 × 10^3 per well. After 24 h of cultivation, the tested substance 49 was added in concentrations of 10, 50 and 100 µM.
We also incubated the cells with chloroquine at concentrations of 5–20 µM, which was added 1 h before the addition of the test substance, and cisplatin at concentrations of 3–10 µM. Cisplatin was added 24 h after the addition of 49. After 72 h of incubation, 10 µL of MTT (5 mg/mL) was added to each well. After 4 h, formazan crystals formed in the wells, which were dissolved in 100 uL of 10% SDS (sodium dodecyl sulfate). After 24 h, the absorbance was measured at a wavelength of 540 nm using an automated Cytation™ 3 Cell Imaging Multi-Mode Reader (Biotek, Winooski, VT, USA). These experiments were performed in three independent replicates.

A549 = assay: MTT screening assay, A549; assay type: cell-based; details: Homo sapiens, 72 h incubation
Text: as §3, §4
as §5, with “After 24 h of cultivation, the tested substance 49 was added in concentrations of 10, 50 and 100 µM.” left out
(§6) We also incubated the cells with chloroquine at concentrations of 5–20 µM, which was added 1 h before the addition of the test substance, and cisplatin at concentrations of 3–10 µM. […] After 24 h, the absorbance was measured at a wavelength of 540 nm using an automated Cytation™ 3 Cell Imaging Multi-Mode Reader (Biotek, Winooski, VT, USA). […]

MCF-7 = assay: MTT screening assay, MCF-7; assay type: cell-based; details: Homo sapiens, MCF7, 72 h incubation
Text: as §3, §4
as §5, with “After 24 h of cultivation, the tested substance 49 was added in concentrations of 10, 50 and 100 µM.” left out
as §6

Phospho-ULK Ser555 = assay: Western blot, phospho-ULK1 Ser555; assay type: cell-based, human; details: A549, all time periods, mostly after 24 and 48 h
Text: as §1, §2

Which “phosphorylated form of AMPK” value (Phospho-AMPKα) does the source give for `CC(C)(C)OC(=O)n1cc(CNC(=O)Nc2ccc(NC(=O)NCc3cn(C(=O)OC(C)(C)C)c4ccccc34)cc2)c2ccccc21` [Compound 49, N,N′-(1,4-phenylene)bis{N′-[1-(tert-butoxycarbonyl)indol-3-yl]methyl (urea)}] here?
The value was “significant increase”.

What about the IC50 (MCF10A; Homo sapiens, MCF-10A, 72 h incubation, MTT, non-cancer cells) of the same molecule?
The IC50 was 55.1 ± 4.1 µM.

What about the “Selectivity index—A549 cells vs. non-cancer cells (MCF10A)” value (MCF10A; IC50 MCF10A / IC50 A549) of the same molecule?
Its value is 6.3.

What about the IC50 (A549) of the same molecule?
The IC50 was 8.7 ± 0.1 µM.

And the IC50 (MCF-7)?
The IC50 was greater than 100 µM.

And the “phosphorylated form of ULK1 at Ser555” value (Phospho-ULK Ser555)?
Its value is “significant upregulation”.
